A short description of data set [1]: Peptide stability in human plasma (in vitro). The settings on record: human blood plasma, 200 μM peptide, 37° C. It counts as in vitro ADME. As for the experimental part: Peptide Stability in Human Plasma (In Vitro)
Peptides were dissolved in human blood plasma (obtained from voluntary healthy donors) at a concentration of 200 μM and incubated at 37° C. for various time intervals. Following quenching (1/1) with aqueous trichloroacetic acid (10%), solutions were incubated on ice for 10 min, subjected to centrifugation to precipitate plasma proteins (20200 g; 4 min), and the supernatants were mixed (1/2) with a solution consisting of 80% HPLC buffer B and 20% HPLC buffer A (see below). To quantify intact peptide at different time points, solutions containing the supernatants were analyzed by RP-HPLC (detection at 214 nm) by using a Nucleosil 100 C18 column (Grace) (length 33 mm length, ID 8 mm, 7 μm particle size) with a flow rate of 2.0 ml/min and eluting buffers A, 0.058% (v/v) TFA in water, and B, 0.05% (v/v) TFA in 90% (v/v) CH3CN in water. The elution gradient was 10-90% B in A over 8 min; this step was followed by a 90-10% B in A over 3 min step to establish starting conditions. HPLC fractions were collected, lyophilized, and analyzed by MALDI-TOF-MS using a Bruker Daltonik MALDI-TOF MS instrument.

Data set [2] deals with recombinant human neprilysin (NEP) (Homo sapiens, UniProt P08473). The settings on record: peptide 100 μM, NEP 500 ng/ml, pH 6.5, 37° C.
Description: Peptide Stability Toward Degradation by Human Neprilysin (In Vitro)
At indicated time points aliquots were quenched (1/1) with aqueous trichloroacetic acid (10%) and solutions were subjected to HPLC analysis and HPLC fractions were collected and analyzed by MALDI-TOF-MS as described under “Peptide stability in human plasma” (above).
The target of data set [3] is T1, Aβ40 (Homo sapiens, UniProt P05067).
T1 construct: Aβ40 (TFA salt) was synthesized by Fmoc-based solid phase synthesis (SPPS); made in house; host or cells: chemical synthesis (Fmoc SPPS on Tentagel R PHB resin)
In words: MTT reduction assay: IC50 of inhibitory effect on cell-damaging amyloid self-assembly of Aβ40 (PC12 cells). Format: cell-based. As for the experimental part: (§1) Assessment of Cell Damage by MTT Reduction Assay
(§2) Both cell lines were cultured and plated in 96-well plates as described. […] Following incubation with the cells for ˜20 h (37° C., humidified atmosphere with 5% CO2), the MTT reduction assay was used to assess cell damage/metabolic activity as previously described.

A further data set concerns hCMEC/D3 cells. In words: Human BBB Transwell permeability assay (in vitro). The following applies: hCMEC monolayer on Transwell; peptides 10 μM, Lucifer yellow 20 μM; mean (±SEM).
Data set [4] has as its target T2, IAPP (Homo sapiens, UniProt P10997).
T2 sequence (P10997 34-70 limits assumed): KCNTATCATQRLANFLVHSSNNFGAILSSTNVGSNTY
The experiment in a line: Fluorescence spectroscopic titration of Fluos-IAPP. It counts as binding. More on the design: IAPP was synthesized by SPPS and the Fmoc-strategy on RINK resin, subjected to air oxidation and purified by RP-HPLC; made in house; host or cells: chemical synthesis (Fmoc SPPS on RINK resin, air oxidation). The settings on record: Fluos-IAPP 5 nM, pH 7.4. As for the experimental part: (§3) Fluorescence Spectroscopic Titration Studies
(§4) A JASCO FP-6500 fluorescence spectrophotometer was used for the fluorescence spectroscopic titrations, which were performed by using previously described experimental protocols. […] App. […] Briefly, freshly made stock solutions of peptides and fluorescently labeled analogs in HFIP were used. Measurements were performed in 10 mM sodium phosphate buffer, pH 7.4 ([…]) at room temperature within 2-5 min following solution preparation. […] App. Kds were estimated using 1/1 binding models as previously described. […] KdDs are means (+SD) from three binding curves.

The target of data set [5] is T2, IAPP. In words: MTT reduction assay: IC50 of inhibitory effect on cell-damaging amyloid self-assembly of IAPP (RIN5fm cells). As for the experimental part: as §1, §2
(In general: Formazan colour is commonly taken as a measure of viable cells.)

The target of data set [6] is T1, Aβ40. The experiment in a line: Fluorescence spectroscopic titration of Dac-Aβ40. It counts as binding. The following applies: Dac-Aβ40 10 nM, pH 7.4. How it is done: as §3, §4
Where [7] appears, read: RP-HPLC and MALDI-TOF-MS, read-out: Half-life time in human plasma.
[8] abbreviates: Aβ40 500 nM, 72 h-aged solutions, PC12 cells, MTT reduction, means (±SD) from 3-4 titration assays, read-out: IC50 (±SD) (nM) Aβ40 inhibition.

This is an account of results in patent publication US11498943B2, “Amyloid inhibitory peptides” (TECHNISCHE UNIVERSITÄT MÜNCHEN, priority 2018, dated 2022).

As a reminder, the Papp A→B is the apparent permeability from the apical to the basolateral side of a cell layer. The term IC50 denotes the concentration that inhibits the measured activity by half.

Read-outs that look alike come from different tables or passages of the source. Where a SMILES comes first, the peptide text is derived from it. Bridges are numbered along the chain shown (N, C = ends). [ ]: non-standard residue; d: D form. The star is where a group is joined. 5FAM = O=C1OC2(c3ccc(O)cc3Oc3cc(O)ccc32)c2ccc(C(=O)*)cc21; NMeI = CC[C@H](C)[C@H](NC)C(=O)O; Sar = CNCC(=O)O

T1 sequence (P05067 672-711): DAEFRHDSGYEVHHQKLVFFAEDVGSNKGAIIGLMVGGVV
Chain of recombinant human neprilysin (NEP) (P08473 whole entry): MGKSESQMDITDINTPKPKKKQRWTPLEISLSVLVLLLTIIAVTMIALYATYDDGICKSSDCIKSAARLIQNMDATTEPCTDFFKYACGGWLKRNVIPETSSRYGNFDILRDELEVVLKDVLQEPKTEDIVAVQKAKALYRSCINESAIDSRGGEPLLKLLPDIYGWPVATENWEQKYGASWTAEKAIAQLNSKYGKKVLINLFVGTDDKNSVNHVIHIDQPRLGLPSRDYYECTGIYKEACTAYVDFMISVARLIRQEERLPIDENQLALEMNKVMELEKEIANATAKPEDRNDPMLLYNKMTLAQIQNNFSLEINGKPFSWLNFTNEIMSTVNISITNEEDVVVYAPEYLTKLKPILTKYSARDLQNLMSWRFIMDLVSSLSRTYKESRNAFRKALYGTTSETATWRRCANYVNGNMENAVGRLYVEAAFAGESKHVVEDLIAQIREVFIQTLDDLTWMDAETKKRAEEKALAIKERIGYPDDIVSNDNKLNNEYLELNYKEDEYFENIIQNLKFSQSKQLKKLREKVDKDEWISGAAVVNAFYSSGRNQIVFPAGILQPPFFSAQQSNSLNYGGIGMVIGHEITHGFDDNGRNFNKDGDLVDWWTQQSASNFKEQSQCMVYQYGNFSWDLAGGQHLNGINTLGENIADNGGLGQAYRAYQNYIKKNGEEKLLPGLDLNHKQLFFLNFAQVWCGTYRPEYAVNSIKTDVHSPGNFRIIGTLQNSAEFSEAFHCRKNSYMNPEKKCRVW
Protocol for hCMEC/D3 cells: Human BBB Transwell Permeability Assay (In Vitro)
Human cerebral microvascular endothelial (hCMEC/D3) cells (Merck) were cultured in collagen type I-coated dishes in EndoGro-MV complete culture media kit supplemented with 1 ng/mL fibroblast growth factor-2 (FGF-2) (all reagents from Merck) (at 37° C. and 5% CO2). […] The Transwell permeability assay was then performed based on a previously established assay using 24-well plates (Sigma-Aldrich) containing 6.5 mm Transwell inserts (0.4 μm pore polycarbonate membrane (Corning)) as follows:
hCMEC/D3 cells were grown in endothelial cell medium (ECM), containing EndoGro-MV complete media, 10% fetal bovine serum (FBS), 1% penicillin-streptamycine (P/S), and 1 ng/mL FGF-2 on the membranes of the Transwell inserts (2×10^5 cells/insert) (37° C. and 5% CO2) until full confluency was reached (normally after 5-7 days of culture). Confluency and BBB-type tightness was verified by TEER analysis; TEER values of 60-80 Ωcm^2 were obtained. The upper and lower chambers then were reconstituted with 200 μl and 800 μl, respectively, of ECM containing 2% FBS. The N-terminal fluorescein-labeled 12 amino acid-long peptide [sequence]-amide (Fluos-Trfb) known to readily cross the BBB via binding to the transferrin receptor, was used as a positive control for BBB permeability in this model.
As a reference point for the maximum fluorescence intensity, 100 μl of medium from the upper chamber at 0 h was also transferred and quantified. […] Lucifer yellow in the lower chamber was quantified by measuring the fluorescence at 530 nm (excitation at 485 nm). Relative permeability (FIG. 3f) was calculated by dividing the fluorescence value of the aliquot from the lower chamber at each time point by the fluorescence value of the 0 h-lower chamber aliquot.
Reported Papp values are means (±SEM) from at least 3 transport assays (each of them performed in triplicates).

As to `CC[C@H](C)[C@H]1C(=O)NCC(=O)NCC(=O)N[C@@H](C(N)=O)CSSC[C@@H](NC(=O)c2ccc3c(c2)C(=O)OC32c3ccc(O)cc3Oc3cc(O)ccc32)C(=O)NCC(=O)N[C@H](Cc2ccccc2)C(=O)N[C@H](CC(C)C)C(=O)NCC(=O)NCC(=O)N[C@H](CCCNC(=N)N)C(=O)N[C@H](CCCNC(=N)N)C(=O)N[C@H](CCCNC(=N)N)C(=O)NCC(=O)N[C@H](Cc2ccccc2)C(=O)N(C)CC(=O)NCC(=O)N1C` [Fluos-2e] (5FAM-[dC]G[dF][dL]GG[dR][dR][dR]G[dF][Sar]G[NMeI]GG[dC]-NH2; disulfide 1-17; N-terminus assumed), the Papp A→B was determined as 14.6 ×10⁻⁶ cm/s.

`CSCC[C@H](NC(=O)[C@@H]1CCCN1C(=O)[C@@H]1CCCN1C(=O)[C@H](CCCNC(=N)N)NC(=O)[C@H](Cc1c[nH]cn1)NC(=O)[C@@H](NC(=O)c1ccc2c(c1)C(=O)OC21c2ccc(O)cc2Oc2cc(O)ccc21)[C@@H](C)O)C(=O)N[C@@H](Cc1c[nH]c2ccccc12)C(=O)N[C@@H](CO)C(=O)N1CCC[C@H]1C(=O)N[C@H](C(=O)N[C@@H](Cc1c[nH]c2ccccc12)C(=O)N1CCC[C@H]1C(N)=O)C(C)C` [Fluos-Trfb, reference compound] (5FAM-THRPPMWSPVWP-NH2; N-terminus assumed) displayed an apparent permeability from apical to basolateral (Papp A→B) of 20.8 ×10⁻⁶ cm/s.

Consider `CC[C@H](C)[C@H]1C(=O)NCC(=O)NCC(=O)N[C@@H](C(N)=O)CSSC[C@@H](N)C(=O)NCC(=O)N[C@H](Cc2ccccc2)C(=O)N[C@H](CC(C)C)C(=O)NCC(=O)NCC(=O)N[C@H](CCCNC(=N)N)C(=O)N[C@H](CCCNC(=N)N)C(=O)N[C@H](CCCNC(=N)N)C(=O)NCC(=O)N[C@H](Cc2ccccc2)C(=O)N(C)CC(=O)NCC(=O)N1C` [Peptide 2e] (H-[dC]G[dF][dL]GG[dR][dR][dR]G[dF][Sar]G[NMeI]GG[dC]-NH2; disulfide 1-17), for which the half-life at 200 μM in data set [1] (setting [7]) was > 11 h. Also, the “Resistance to degradation by human neprilysin” value in data set [2] is “fully resistant to degradation”. At Aβ40 [3], this compound registered an IC50 of 542 nM.

For Lucifer yellow, in the data set on hCMEC/D3 cells, the “Apparent permeability (Papp) at 2 h” value is 5.3×10^−6 (±2.7) cm/s.

As to `CC[C@H](C)[C@H]1C(=O)N[C@@H](CC(C)C)C(=O)N[C@@H](CO)C(=O)N[C@H](C(N)=O)CSSC[C@H](N)C(=O)N[C@@H](CC(N)=O)C(=O)N[C@@H](Cc2ccccc2)C(=O)N[C@@H](CC(C)C)C(=O)N[C@@H](C(C)C)C(=O)N[C@@H](Cc2c[nH]cn2)C(=O)N[C@@H](CCCNC(=N)N)C(=O)N[C@@H](CCCNC(=N)N)C(=O)N[C@@H](CCCNC(=N)N)C(=O)N[C@@H](CC(N)=O)C(=O)N[C@@H](Cc2ccccc2)C(=O)N(C)CC(=O)N[C@@H](C)C(=O)N1C` [Peptide 2a] (H-CNFLVHRRRNF[Sar]A[NMeI]LSC-NH2; disulfide 1-17; N-terminus assumed), at IAPP [4], the “app. Kd of interaction with N-terminal fluorescently labeled IAPP” value was “mid-nanomolar”. Further, at IAPP [5] (ratio of IC50s), the “Potency against IAPP cytotoxic self-assembly relative to 1a” value is reported as ~3 fold. Moreover, on Aβ40 [6], the “app. Kd of interaction with N-terminal fluorescently labeled Aβ40” value is “mid-nanomolar”.

With `CC[C@H](C)[C@H]1C(=O)NCC(=O)NCC(=O)N[C@H](C(N)=O)CSSC[C@H](N)C(=O)NCC(=O)N[C@H](Cc2ccccc2)C(=O)N[C@H](CC(C)C)C(=O)NCC(=O)NCC(=O)N[C@H](CCCNC(=N)N)C(=O)N[C@H](CCCNC(=N)N)C(=O)N[C@H](CCCNC(=N)N)C(=O)NCC(=O)N[C@H](Cc2ccccc2)C(=O)N(C)CC(=O)NCC(=O)N1C` [Peptide 2d] (H-CG[dF][dL]GG[dR][dR][dR]G[dF][Sar]G[NMeI]GGC-NH2; disulfide 1-17), the half-life at 200 μM in data set [1] (setting [7]) was 1 to 2 h. The IC50 at Aβ40 [3] (setting [8]) turned out to be 703 nM.

On to `CC[C@H](C)[C@H]1C(=O)NCC(=O)NCC(=O)N[C@H](C(N)=O)CSSC[C@H](N)C(=O)NCC(=O)N[C@@H](Cc2ccccc2)C(=O)N[C@@H](CC(C)C)C(=O)NCC(=O)NCC(=O)N[C@@H](CCCNC(=N)N)C(=O)N[C@@H](CCCNC(=N)N)C(=O)N[C@@H](CCCNC(=N)N)C(=O)NCC(=O)N[C@@H](Cc2ccccc2)C(=O)N(C)CC(=O)NCC(=O)N1C` [Peptide 2b] (H-CGFLGGRRRGF[Sar]G[NMeI]GGC-NH2; disulfide 1-17), for which the half-life at 200 μM in data set [1] (read-out: t1/2 in human plasma) was ~0.75 h. Further, the “app. Kd of interaction with N-terminal fluorescently labeled IAPP” value on IAPP [4] is listed as “mid-nanomolar”. Besides, the IC50 against IAPP [5] turned out to be 426 nM; against Aβ40 [3], 654 nM. In addition, on Aβ40 [6], the “app. Kd of interaction with N-terminal fluorescently labeled Aβ40” value was “mid-nanomolar”.

As to `CC[C@H](C)[C@H]1C(=O)NCC(=O)NCC(=O)N[C@H](C(N)=O)CSSC[C@H](N)C(=O)NCC(=O)N[C@@H](Cc2ccccc2)C(=O)N[C@@H](CC(C)C)C(=O)NCC(=O)NCC(=O)N[C@H](CCCNC(=N)N)C(=O)N[C@H](CCCNC(=N)N)C(=O)N[C@H](CCCNC(=N)N)C(=O)NCC(=O)N[C@@H](Cc2ccccc2)C(=O)N(C)CC(=O)NCC(=O)N1C` [Peptide 2c] (H-CGFLGG[dR][dR][dR]GF[Sar]G[NMeI]GGC-NH2; disulfide 1-17), in data set [1] (setting [7]), the half-life at 200 μM was in the range of 1 to 2 h. Besides, the IC50 at Aβ40 [3] (setting [8]) turned out to be 204 nM.

On to `CC[C@H](C)[C@H]1C(=O)N[C@@H](CC(C)C)C(=O)N[C@@H](CO)C(=O)N[C@H](C(N)=O)CSSC[C@H](N)C(=O)N[C@@H](C)C(=O)N[C@@H]([C@@H](C)O)C(=O)N[C@@H](CCC(N)=O)C(=O)N[C@@H](CCCNC(=N)N)C(=O)N[C@@H](CC(C)C)C(=O)N[C@@H](C)C(=O)N[C@@H](CC(N)=O)C(=O)N[C@@H](Cc2ccccc2)C(=O)N[C@@H](CC(C)C)C(=O)N[C@@H](C(C)C)C(=O)N[C@@H](Cc2c[nH]cn2)C(=O)N[C@@H](CCCNC(=N)N)C(=O)N[C@@H](CCCNC(=N)N)C(=O)N[C@@H](CCCNC(=N)N)C(=O)N[C@@H](CC(N)=O)C(=O)N[C@@H](Cc2ccccc2)C(=O)N(C)CC(=O)N[C@@H](C)C(=O)N1C` [Peptide 1a] (H-CATQRLANFLVHRRRNF[Sar]A[NMeI]LSC-NH2; disulfide 1-23; N-terminus assumed), for which, at IAPP [4], the “app. Kd of interaction with N-terminal fluorescently labeled IAPP” value is “mid-nanomolar”. In addition, at Aβ40 [6], the “app. Kd of interaction with N-terminal fluorescently labeled Aβ40” value is listed as “mid-nanomolar”.
